Measurements: patent publication US20200231614A1, “PSMA TARGETED RADIOHALOGENATED UREAS FOR CANCER RADIOTHERAPY” (THE JOHNS HOPKINS UNIVERSITY, priority 2015, published 2020)
Read-outs that look alike come from different tables or passages of the source.

What was measured:
[1] = test system: PSMA positive cells; experiment: In vitro radiotoxicity (cell kill); settings: vs. free [^211At]astatide (FIG. 5B)
[2] = test system: PSMA+(PIP) tumors and PSMA−(Flu) tumors; type: in vivo; settings: 3 to 19 days after single-bolus injection (20 μCi), PSMA+(PIP) vs PSMA−(Flu) tumors
[3] = test system: LNCaP cells; experiment: Uptake by LNCaP cells in presence and absence of PSMA inhibitor; settings: 2 h and 4 h, presence and absence of PSMA inhibitor 2-PSMA (FIG. 5A)
[4] = test system: PSMA + PC-3 PiP and PSMA − PC-3 flu tumor xenografts; settings: for Biodistribution: PC-3 PiP: PSMA+ tumor xenograft; for Biodistribution: PC-3 flu: PSMA− tumor xenograft
[5] = molecular target: PSMA (Homo sapiens, UniProt Q04609); experiment: PSMA binding affinity (Ki); settings: measured Ki, Table 11
From the text: Lysine glutamate ureas compounds for radiotherapy are disclosed in FIG. 2.

[6] = 18 H post-injection, comparative Table 13

Chain of PSMA (Q04609 whole entry): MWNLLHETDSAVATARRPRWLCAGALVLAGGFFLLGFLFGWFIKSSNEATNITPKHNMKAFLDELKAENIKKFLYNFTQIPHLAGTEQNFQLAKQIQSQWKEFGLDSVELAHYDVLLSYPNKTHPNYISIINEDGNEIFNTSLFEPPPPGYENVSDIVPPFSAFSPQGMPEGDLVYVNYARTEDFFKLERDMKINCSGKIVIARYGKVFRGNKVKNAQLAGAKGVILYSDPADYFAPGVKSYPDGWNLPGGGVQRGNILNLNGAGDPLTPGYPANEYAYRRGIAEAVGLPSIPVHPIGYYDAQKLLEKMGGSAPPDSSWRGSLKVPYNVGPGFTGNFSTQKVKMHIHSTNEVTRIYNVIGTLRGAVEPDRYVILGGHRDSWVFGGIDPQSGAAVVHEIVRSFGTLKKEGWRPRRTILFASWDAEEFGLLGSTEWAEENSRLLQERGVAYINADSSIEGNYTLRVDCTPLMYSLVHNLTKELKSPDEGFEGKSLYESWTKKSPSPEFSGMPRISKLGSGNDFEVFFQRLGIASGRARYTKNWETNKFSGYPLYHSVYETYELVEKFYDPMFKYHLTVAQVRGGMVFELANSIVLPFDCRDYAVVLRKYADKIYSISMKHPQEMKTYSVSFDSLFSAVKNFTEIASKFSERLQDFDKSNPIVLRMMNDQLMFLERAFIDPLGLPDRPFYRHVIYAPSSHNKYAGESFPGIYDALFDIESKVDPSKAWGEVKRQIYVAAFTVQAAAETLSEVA

O=C(O)CC[C@H](NC(=O)NC(CCCCNC(=O)c1ccc([211At])cc1)C(=O)O)C(=O)O (stereo partly drawn) [[^211At]YC-I-27, (2S)-2-(3-(1-Carboxy-5-(4-[^211At]asatatobenzamido)pentyl)ureido)pentanedioic Acid]
Cell kill [1]: effectively kill cell relative to the untargeted alpha emitter
Tumor growth inhibition [2]: PSMA Specific Tumor Growth Inhibition
Uptake by LNCaP cells [3]: is blocked, indicating target (PSMA) specific binding
Biodistribution: Sm int. ([4]; 1 H post-injection): 3.67 ± 0.65 % ID/g
Biodistribution: bladder ([4]; 1 H post-injection): 5.45 ± 2.57 % ID/g
Biodistribution: blood ([4]; 1 H post-injection): 1.67 ± 0.32 % ID/g
Biodistribution: heart ([4]; 1 H post-injection): 2.36 ± 0.48 % ID/g
Biodistribution: kidney ([4]; 1 H post-injection): 71.5 ± 12.0 % ID/g
Biodistribution: liver ([4]; 1 H post-injection): 2.11 ± 0.65 % ID/g
Biodistribution: lung ([4]; 1 H post-injection): 5.82 ± 1.28 % ID/g
Biodistribution: muscle ([4]; 1 H post-injection): 0.95 ± 0.15 % ID/g
Biodistribution: spleen ([4]; 1 H post-injection): 29.2 ± 10.2 % ID/g
Biodistribution: stomach ([4]; 1 H post-injection): 10.1 ± 1.66 % ID/g
Biodistribution: thyroid ([4]; 1 H post-injection): 3.68 ± 1.10 % ID/g
Biodistribution: Sm int. ([4]; 2 H post-injection): 2.08 ± 0.41 % ID/g
Biodistribution: bladder ([4]; 2 H post-injection): 4.55 ± 0.86 % ID/g
Biodistribution: blood ([4]; 2 H post-injection): 1.26 ± 0.15 % ID/g
Biodistribution: heart ([4]; 2 H post-injection): 1.79 ± 0.31 % ID/g
Biodistribution: kidney ([4]; 2 H post-injection): 60.2 ± 6.16 % ID/g
Biodistribution: liver ([4]; 2 H post-injection): 1.58 ± 0.21 % ID/g
Biodistribution: lung ([4]; 2 H post-injection): 6.30 ± 1.57 % ID/g
Biodistribution: muscle ([4]; 2 H post-injection): 0.81 ± 0.12 % ID/g
Biodistribution: spleen ([4]; 2 H post-injection): 20.3 ± 5.21 % ID/g
Biodistribution: stomach ([4]; 2 H post-injection): 9.29 ± 2.86 % ID/g
Biodistribution: thyroid ([4]; 2 H post-injection): 3.56 ± 0.95 % ID/g
tumor/kidney ratio ([4]; 2 H post-injection): 0.3
Biodistribution: Sm int. ([4]; 4 H post-injection): 1.85 ± 0.23 % ID/g
Biodistribution: bladder ([4]; 4 H post-injection): 4.17 ± 0.74 % ID/g
Biodistribution: blood ([4]; 4 H post-injection): 0.99 ± 0.12 % ID/g
Biodistribution: heart ([4]; 4 H post-injection): 1.65 ± 0.39 % ID/g
Biodistribution: kidney ([4]; 4 H post-injection): 60.2 ± 11.5 % ID/g
Biodistribution: liver ([4]; 4 H post-injection): 1.63 ± 0.10 % ID/g
Biodistribution: lung ([4]; 4 H post-injection): 5.54 ± 1.79 % ID/g
Biodistribution: muscle ([4]; 4 H post-injection): 0.72 ± 0.14 % ID/g
Biodistribution: spleen ([4]; 4 H post-injection): 20.3 ± 3.55 % ID/g
Biodistribution: stomach ([4]; 4 H post-injection): 13.3 ± 3.12 % ID/g
Biodistribution: thyroid ([4]; 4 H post-injection): 3.83 ± 1.18 % ID/g
Biodistribution: Sm int. ([4]; 18 H post-injection): 1.08 ± 0.10 % ID/g
Biodistribution: bladder ([4]; 18 H post-injection): 2.51 ± 0.39 % ID/g
Biodistribution: blood ([4]; 18 H post-injection): 0.53 ± 0.05 % ID/g
Biodistribution: heart ([4]; 18 H post-injection): 1.10 ± 0.16 % ID/g
Biodistribution: kidney ([4]; 18 H post-injection): 57.4 ± 7.36 % ID/g
Biodistribution: liver ([4]; 18 H post-injection): 0.82 ± 0.07 % ID/g
Biodistribution: lung ([4]; 18 H post-injection): 3.61 ± 0.40 % ID/g
Biodistribution: muscle ([4]; 18 H post-injection): 0.49 ± 0.27 % ID/g
Biodistribution: spleen ([4]; 18 H post-injection): 8.01 ± 2.04 % ID/g
Biodistribution: stomach ([4]; 18 H post-injection): 9.42 ± 3.04 % ID/g
Biodistribution: thyroid ([4]; 18 H post-injection): 6.50 ± 1.97 % ID/g
Non-target organ uptake: spleen [4, 6]: 8.0 % D/g
Non-target organ uptake: stomach [4, 6]: 9.4 % D/g
Non-target organ uptake: thyroid [4, 6]: 6.5 % D/g
tumor/kidney ratio ([4]; 21 H post-injection): 0.5
Biodistribution: PC-3 PiP ([4]; 1 H post-injection): 17.9 ± 2.98 % ID/g
Biodistribution: PC-3 PiP ([4]; 2 H post-injection): 20.7 ± 3.42 % ID/g
Biodistribution: PC-3 PiP ([4]; 4 H post-injection): 18.3 ± 2.90 % ID/g
Biodistribution: PC-3 PiP ([4]; 18 H post-injection): 31.1 ± 9.78 % ID/g
Biodistribution: PC-3 flu ([4]; 1 H post-injection): 2.18 ± 0.44 % ID/g
Biodistribution: PC-3 flu ([4]; 2 H post-injection): 1.81 ± 0.27 % ID/g
Biodistribution: PC-3 flu ([4]; 4 H post-injection): 1.53 ± 0.22 % ID/g
Biodistribution: PC-3 flu ([4]; 18 H post-injection): 1.17 ± 0.20 % ID/g
PSMA positive tumor uptake (in words) ([4]; biodistributions of Tables 2, 3, 9, 10): demonstrated PSMA positive tumor uptake

O=C(O)CC[C@H](NC(=O)N[C@@H](CCC(=O)NCCc1ccc(I)cc1)C(=O)O)C(=O)O [HS-549, (((5)-1-Carboxy-4-((4-iodophenethyl)amino)-4-oxobutyl)carbamoyl)-L-glutamic Acid]
Ki [5]: 0.01 nM
